Assay [1] deals with T1, Tyrosine-protein phosphatase non-receptor type 2 (Homo sapiens, UniProt P17706).
T1 sequence (P17706 whole entry): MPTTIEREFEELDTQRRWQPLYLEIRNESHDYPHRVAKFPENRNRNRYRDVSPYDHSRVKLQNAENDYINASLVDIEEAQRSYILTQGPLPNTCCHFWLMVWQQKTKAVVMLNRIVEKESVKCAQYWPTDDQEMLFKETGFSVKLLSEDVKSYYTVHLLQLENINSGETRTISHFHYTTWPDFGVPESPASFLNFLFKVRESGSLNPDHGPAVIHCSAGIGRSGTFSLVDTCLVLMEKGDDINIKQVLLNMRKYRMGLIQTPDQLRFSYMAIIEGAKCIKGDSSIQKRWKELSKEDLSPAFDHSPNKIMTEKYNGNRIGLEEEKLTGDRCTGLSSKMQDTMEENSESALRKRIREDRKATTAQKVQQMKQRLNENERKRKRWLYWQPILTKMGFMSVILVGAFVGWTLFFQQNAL

Assay [2] deals with T2, Tyrosine-protein phosphatase non-receptor type 1 (Homo sapiens, UniProt P18031).
T2 sequence (P18031 whole entry): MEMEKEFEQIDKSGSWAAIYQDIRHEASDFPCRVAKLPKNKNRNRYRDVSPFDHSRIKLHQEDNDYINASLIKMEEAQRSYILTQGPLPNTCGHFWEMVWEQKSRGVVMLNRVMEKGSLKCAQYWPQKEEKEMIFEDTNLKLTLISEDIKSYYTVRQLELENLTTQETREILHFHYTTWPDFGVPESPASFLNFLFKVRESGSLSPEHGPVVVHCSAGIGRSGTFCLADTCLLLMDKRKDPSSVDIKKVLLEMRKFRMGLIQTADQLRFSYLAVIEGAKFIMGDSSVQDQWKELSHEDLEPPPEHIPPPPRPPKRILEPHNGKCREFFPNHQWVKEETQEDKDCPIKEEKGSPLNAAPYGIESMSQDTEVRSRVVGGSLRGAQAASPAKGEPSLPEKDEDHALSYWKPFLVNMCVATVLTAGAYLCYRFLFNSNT

For assay [3], the target named is T3, M-phase inducer phosphatase 2 (Homo sapiens, UniProt P30305).
T3 sequence (P30305 whole entry): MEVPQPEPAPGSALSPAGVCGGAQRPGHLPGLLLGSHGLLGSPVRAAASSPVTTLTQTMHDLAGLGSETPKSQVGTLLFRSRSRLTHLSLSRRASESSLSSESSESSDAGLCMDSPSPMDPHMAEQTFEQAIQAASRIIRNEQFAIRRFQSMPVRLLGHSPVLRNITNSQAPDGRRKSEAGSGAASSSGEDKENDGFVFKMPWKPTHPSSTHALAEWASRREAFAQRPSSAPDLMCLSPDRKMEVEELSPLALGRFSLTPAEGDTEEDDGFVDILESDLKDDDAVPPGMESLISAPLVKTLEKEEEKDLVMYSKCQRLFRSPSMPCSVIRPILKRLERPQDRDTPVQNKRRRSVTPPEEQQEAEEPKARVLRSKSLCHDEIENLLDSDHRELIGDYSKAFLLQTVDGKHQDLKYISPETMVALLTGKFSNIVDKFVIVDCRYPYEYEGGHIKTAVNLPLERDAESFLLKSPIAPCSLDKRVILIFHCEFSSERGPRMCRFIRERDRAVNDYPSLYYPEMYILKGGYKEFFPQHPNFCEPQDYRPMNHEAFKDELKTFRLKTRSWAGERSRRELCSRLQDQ

Assay [4] concerns the target T4, Tyrosine-protein phosphatase non-receptor type 11 (Homo sapiens, UniProt Q06124).
T4 sequence (Q06124 whole entry): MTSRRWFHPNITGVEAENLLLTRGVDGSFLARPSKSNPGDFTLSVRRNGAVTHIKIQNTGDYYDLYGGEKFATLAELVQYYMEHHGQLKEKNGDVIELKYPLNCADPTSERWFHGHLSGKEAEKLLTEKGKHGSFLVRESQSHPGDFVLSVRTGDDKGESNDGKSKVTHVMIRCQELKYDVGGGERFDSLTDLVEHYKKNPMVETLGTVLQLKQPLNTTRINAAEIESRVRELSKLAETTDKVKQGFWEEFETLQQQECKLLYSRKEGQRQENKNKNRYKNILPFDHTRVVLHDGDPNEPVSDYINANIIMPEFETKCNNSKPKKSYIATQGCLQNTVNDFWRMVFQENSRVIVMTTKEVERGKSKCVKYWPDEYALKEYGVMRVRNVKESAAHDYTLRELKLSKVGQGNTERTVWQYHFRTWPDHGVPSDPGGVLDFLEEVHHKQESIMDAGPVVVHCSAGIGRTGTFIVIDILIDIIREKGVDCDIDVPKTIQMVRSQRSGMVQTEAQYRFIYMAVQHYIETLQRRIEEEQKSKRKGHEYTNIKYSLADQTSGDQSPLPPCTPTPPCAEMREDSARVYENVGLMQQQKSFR

The target in assay [5] is Tyrosine-protein phosphatase non-receptor type 6 (Homo sapiens, UniProt P29350).
Tyrosine-protein phosphatase non-receptor type 6, sequence (P29350 whole entry): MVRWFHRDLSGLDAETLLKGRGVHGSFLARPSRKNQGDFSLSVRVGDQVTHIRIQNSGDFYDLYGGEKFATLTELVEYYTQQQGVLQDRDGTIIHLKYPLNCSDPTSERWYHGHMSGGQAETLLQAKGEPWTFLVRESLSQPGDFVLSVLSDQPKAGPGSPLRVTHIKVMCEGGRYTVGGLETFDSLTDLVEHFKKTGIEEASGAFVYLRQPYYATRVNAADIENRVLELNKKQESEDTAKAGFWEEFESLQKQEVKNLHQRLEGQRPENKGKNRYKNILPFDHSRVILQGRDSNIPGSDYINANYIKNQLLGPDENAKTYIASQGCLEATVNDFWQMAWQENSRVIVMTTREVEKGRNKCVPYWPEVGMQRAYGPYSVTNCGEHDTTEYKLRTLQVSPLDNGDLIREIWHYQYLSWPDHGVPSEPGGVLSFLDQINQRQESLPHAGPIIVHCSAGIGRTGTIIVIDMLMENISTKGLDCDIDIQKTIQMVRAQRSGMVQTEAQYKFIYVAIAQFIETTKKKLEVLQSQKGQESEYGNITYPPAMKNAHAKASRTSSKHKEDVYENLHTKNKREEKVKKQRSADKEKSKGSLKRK

For seven compounds, IC50 results are on record in BindingDB's records for doi:10.1039/c4ob00214h (Lanzhou University, 2014).

As usually defined, the IC50 is the concentration that gives 50% inhibition. A lower IC50 goes with inhibition by little substance. As to `CCCCCCCCCCCCC/C=C/[C@@]12C(=O)O[C@@H](C)[C@@H]1[C@H]1C(=CC2CCCCCCCCCCCC)C(=O)O[C@H]1C` (stereo partly drawn) [(1R,2S,3S,8R,9S,12S)-8-dodecyl-3,12-dimethyl-9-[(1E)-pentadec-1-en-1-yl]-4,11-dioxatricyclo[7.3.0.0,⁶]dodec-6-ene-5,10-dione (7)], the IC50 in assay [1] worked out at 31.8 µM; in assay [2], 4.27 µM; in assay [3], 3.93 µM.
The matching figures for `CCCCCCCCCCCC/C=C/[C@@]12C(=O)O[C@@H](C)[C@@H]1[C@H]1C(=C[C@H]2CCCCCCCCCCCC)C(=O)O[C@H]1C` [(1R,2S,3S,8R,9S,12S)-8-dodecyl-3,12-dimethyl-9-[(1E)-tetradec-1-en-1-yl]-4,11-dioxatricyclo[7.3.0.0,⁶]dodec-6-ene-5,10-dione (6)]: 13.2 µM, 3.25 µM and 2.34 µM.
Regarding `CCCCCCCCCCCC[C@@H]1C=C2C(=O)O[C@@]3(C)O[C@@]4(C)OC(=O)[C@]1(CO)[C@H]4[C@@H]23` [(1R,6R,7S,10S,11R,12S)-6-dodecyl-7-(hydroxymethyl)-1,10-dimethyl-2,9,13-trioxatetracyclo[8.2.1.0⁴,.0⁷,]tridec-4-ene-3,8-dione (15)], the IC50 in assay [1] was 19.8 µM; in assay [2] it was 20.4 µM; in assay [3] it was 17 µM.
For the compound `CCCCCCCCCCCC[C@@H]1C=C2C(=O)O[C@@]3(C)O[C@@]4(C)OC(=O)[C@]1(C=O)[C@H]4[C@@H]23` [(1S,4S,5R,10R,11S,12R)-5-dodecyl-1,10-dimethyl-3,8-dioxo-2,9,13-trioxatetracyclo[8.2.1.0⁴,.0⁷,]tridec-6-ene-4-carbaldehyde (14)], the IC50 was 9.38 µM in assay [1], 6 µM in assay [2] and 8.33 µM in assay [3].
Regarding `CCCCCCCCCCCCC/C=C/[C@@]12C(=O)O[C@@H](C)[C@@H]1[C@H](C(C)=O)C(C(=O)O)=C[C@H]2CCCCCCCCCCCC` [(3S,3aR,4S,7R,7aS)-4-acetyl-7-dodecyl-3-methyl-1-oxo-7a-[(1E)-pentadec-1-en-1-yl]-1,3,3a,4,7,7a-hexahydro-2-benzofuran-5-carboxylic acid (9)], the IC50 is 2.55 µM in assay [1]; 0.27 µM in assay [2]; 3.13 µM in assay [4]; 3.86 µM in assay [5]; 0.22 µM in assay [3].
The matching figures for `CCCCCCCCCCCCC/C=C/[C@@]12C(=O)O[C@@H](C)[C@@H]1[C@H](C(C)=O)C(C(=O)O)=CC2CCCCCCCCCCCC` (stereo partly drawn) [(3S,3aR,4S,7aS)-4-acetyl-7-dodecyl-3-methyl-1-oxo-7a-[(1E)-pentadec-1-en-1-yl]-1,3,3a,4,7,7a-hexahydro-2-benzofuran-5-carboxylic acid (10)]: 4.73 µM, 0.27 µM, 1.71 µM, 4.41 µM and 0.2 µM.
Turning to `CCCCCCCCCCCC/C=C/[C@]12C(=O)O[C@]3(C)O[C@]4(C)OC(=O)C(=C[C@H]1CCCCCCCCCCCC)[C@@H]4[C@@H]32` [Paracaseolide A (13)], the IC50 was 6.01 µM in assay [1], 1.5 µM in assay [2] and 2.34 µM in assay [3].
